Measured values as given in article PMC6695191 (PLoS Neglected Tropical Diseases, 2019).
Like-named read-outs stand apart in the source and are kept apart here.

What was measured:
[1] = tested on: L. donovani promastigotes; test: L. donovani promastigote assay (Alamar Blue); format: cell-based, Leishmania donovani; conditions: 72 h incubation at 28°C, mean ± SD, n = 2 biological replicates
Experimental: (§1) Leishmania donovani axenic cultures (strain MHOM/ET/67/HU3) were maintained in M199 medium (pH 7.4) supplemented with 10% heat-inactivated fetal calf serum (FCS) and grown at 28°C [22]. Human leukemia cells (THP-1 cell line) were maintained in RPMI-1640 (FCS 10%) and grown at 37°C and 5% CO2. Stock solutions of compounds 1–4 were prepared in 100% DMSO at 10 mM and tested in 2-fold serial dilutions (10 concentrations) in 96-well flat-bottom microtiter plates.
For the promastigote assay, L. donovani cells from axenic cultures in logarithmic growth were seeded at 1 x 10^5/well (M199, 80 μL) and compounds were added in serial dilutions (20 μL). All plates included negative controls (100% parasite growth) and miltefosine as a positive control. After 72 hours of incubation at 28°C, 10 μL of Alamar Blue (12.5 mg resazurin/100 mL distilled water) was added to each well and then the plates were incubated for 3 hours. This indicator of cell viability permeates into viable parasites, where it is reduced by NADPH and NADH enzymes to the highly fluorescent compound resorufin [24]. Following incubation, the plates were read with a microplate fluorometer under an excitation wave length of 536 nm and an emission wave length of 588 nm. […] If the test compound is active against L. donovani, the number of viable parasites is reduced, thus resulting a decrease in fluorescence. Growth inhibition was expressed as a percentage of the fluorescence of the negative control wells. IC50 values were determined using SigmaPlot. Dose-response curves were fitted using log (inhibitor concentration) vs. normalized response (between 0% and 100%) with variable slope, and IC50 values were automatically calculated.

[2] = tested on: L. donovani intracellular amastigotes; test: L. donovani intracellular amastigote assay in PMA-differentiated THP-1 macrophages (Giemsa counting); format: cell-based, Leishmania donovani; conditions: for Selectivity Index: CC50 THP-1/IC50 intracellular amastigotes; for IC50: L. donovani in THP-1 macrophages, 120 h incubation, mean ± SD, n = 2 biological replicates
Experimental: as §1
In the intracellular amastigote assay, THP-1 cells were seeded at 2 × 10^4/well (RPMI-1640, 100 μL) with phorbol 12-myristate 13-acetate (PMA) at 20 ng/mL for differentiation into macrophages. After incubation for 72 hours (5% CO2, 37°C), medium was aspirated and late-stage promastigotes were added (2 × 10^5/well, 100 μL). After 24 hours of incubation, medium was aspirated to clear extracellular parasites, compounds were added in serial dilutions (100 μL) and the plates were incubated for 120 hours. All plates included negative controls (100% parasite growth) and miltefosine as a positive control. Following incubation, medium was removed and the cells were fixed in methanol and stained with Giemsa. The average number of intracellular amastigotes per THP-1 cell was determined using an inverted microscope and a cell counter. Growth inhibition was expressed as a percentage of the average number of amastigotes per macrophage in the negative control wells. IC50 values were determined as described above for the promastigote assay.

[3] = Selectivity assay on THP-1 macrophages (Alamar Blue); format: cell-based; conditions: human
Experimental: Leishmania donovani axenic cultures (strain MHOM/ET/67/HU3) were maintained in M199 medium (pH 7.4) supplemented with 10% heat-inactivated fetal calf serum (FCS) and grown at 28°C [22].
After incubation for 72 hours (5% CO2, 37°C), medium was aspirated, compounds were added in serial dilutions (100 μL) and the plates were incubated for 120 h. All plates included negative controls and doxorubicin as a positive control. Following incubation, 10 μL of Alamar Blue was added to each well and then the plates were incubated for 3 hours. […] Growth inhibition was expressed as a percentage of the fluorescence of the negative control wells. IC50 values were determined as described above for the promastigote and amastigote assays.

Escovopsis sp. = test: Antagonist bioassay of compounds and fractions against Escovopsis on ISP-2 agar; format: cell-based; conditions: 100 μg compound, 21 days
Experimental: (§2) Each bacterium-fungus and compound-fungal challenge was replicated two times on ISP-2 agar. Bacteria strains were initially screened against Escovopsis sp. ICBG1251. Bacteria were placed in the center of ISP-2 agar Petri dishes and grown alone during 7 days; fungal strains were then point-inoculated near the edge of the culture (microbial strains distant from each other around 3 cm). Two microliters of compounds (100 μg) were placed in the center of Petri dishes and fungal strains were then point-inoculated near the edge of the plate. The positive control used was the miconazole. Challenges were monitored each 7 days and inhibition zone was measure after 21 days. Four different fungal strains were used for testing the pure compounds: Escovopsis sp. ICBG711 (from Trachymyrmex colony), Escovopsis sp. ICBG740 (from Acromyrmex colony), Escovopsis sp. ICBG1251 (from Atta colony) and Trichoderma sp. ICBG1100 (from attine colony).

Trichoderma sp. ICBG1100 = test: Antagonist bioassay of compounds against Trichoderma on ISP-2 agar; format: cell-based; conditions: 100 μg compound, 21 days of growth at 28°C
Experimental: as §2

[4] = THP-1 macrophages, 120 h incubation, mean ± SD, n = 2 biological replicates, read-out: CC50 THP-1

Row | SMILES | IC50 ([1]; Leishmania donovani) [µM] | Selectivity Index [2] | IC50 ([2]; Leishmania donovani) [µM] | CC50 at 120 h [3, 4] [µM] | further results
1 | CO[C@@H]1C[C@@H](C[C@H]2CC[C@H](C)[C@H]([C@@H](C)C(=O)O)O2)O[C@]2(O[C@](C)([C@H]3CC[C@@](C)([C@@H]4O[C@@H]([C@H]5O[C@@](O)(CO)[C@H](C)C[C@@H]5C)C[C@@H]4C)O3)C[C@H]2C)[C@@H]1C [Compound 3, nigericin] | 0.284 ± 0.072 | 88.91 | 0.129 ± 0.008 |  | CC50 at 120 h [3]: 11.5 ± 0.68 µM
2 | CC[C@@H]1C[C@H]2CC[C@H](O2)[C@H](C)C(=O)O[C@@H](C)C[C@@H]2CC[C@@H](O2)[C@@H](C)C(=O)O[C@H](CC)C[C@H]2CC[C@H](O2)[C@H](C)C(=O)O[C@@H](C)C[C@@H]2CC[C@@H](O2)[C@@H](C)C(=O)O1 [Compound 4, dinactin] | 0.032 ± 0.005 | 656.11 | 0.018 ± 0.003 | 11.8 ± 1.57 | 
3 | COc1cccc2c1C(=O)c1c(O)c3c(c(O)c1C2=O)C[C@@](O)(C(=O)CO)C[C@@H]3O[C@H]1C[C@H](N)[C@H](O)[C@H](C)O1 [Doxorubicin, reference compound] |  |  |  |  | CC50 at 120 h ([3]; THP-1 cells differentiated into macrophages with PMA, THP-1 macrophages, 120 h incubation, mean ± SD, n = 2 biological replicates, read-out: CC50 THP-1): 0.571 ± 0.068 µM
4 | C/C=C(\C)[C@H](O)[C@H](C)/C=C(C)/C=C/C/C(C)=C/Cc1nc(OC)c(OC)c(O)c1C [Compound 2, piericidin-A1] | 38.4 ± 4.63 |  | > 64 | > 64 | 
5 | C/C=C(\C)[C@H](O)[C@H](C)/C=C(C)/C=C/C/C(C)=C/Cc1nc(OC)cc(O)c1C [Compound 1, Mer-A2026B] |  |  |  |  | IC50 [1]: 35.9 ± 1.83 µM; IC50 [2]: 49.9 ± 7.01 µM; Antagonist activity against four different Escovopsis strains compared to compounds 2–4 (Escovopsis sp.): higher antagonist activity; Activity against Trichoderma sp. (Trichoderma sp. ICBG1100): active
6 | CCCCCCCCCCCCCCCCOP(=O)([O-])OCC[N+](C)(C)C [Miltefosine, reference compound] | 4.74 ± 0.25 |  | 5.8 ± 0.59 |  | 
